This note sets out measurements from patent US20250161227A1, “PEGYLATED LIPIDS” (Acuitas Therapeutics, Inc., priority 2023, published 2025).

For this assay, the system named is reporter gene (firefly luciferase) expression in the liver. In words: Luciferase expression in mouse liver following tail vein injection of mRNA lipid nanoparticles. In kind it is in vivo. The settings on record: increasing concentration of compound I-5 in the lipid nanoparticle. As for the experimental part:
Lipid nanoparticles were formulated with short chain PEG lipid at various molar ratios as described in Formulation Example 1. Relative activity was determined by measuring luciferase expression in the mouse liver 4 hours following administration via tail vein injection.
Increasing concentration of compound I-5 reduced the overall expression of the reporter gene (firefly luciferase) in the liver (see, e.g., Table 4). Lipid nanoparticle systems that included compound I-5 at a concentration of 5 mol % reduced the amount of expression by ˜50% while lipid nanoparticle systems including compound I-5 at 10 mol % reduced to 20% of benchmark (lipid nanoparticle system with no compound I-5). […] However, 2.5 mol % compound I-5 changed the expression kinetic. […] Lipid nanoparticle systems with compound I-5 at a concentration of 2.5 mol % also provided a benefit of prolonged expression since at 16 hours the same system had ˜4-fold expression in comparison to the lipid nanoparticle system with no compound I-5.

For `CCCCCCCCCCCCCCN(CCCCCCCCCCCCCC)C(=O)CCC(=O)OCCOCCOCCOC` [compound I-5], the “overall expression of the reporter gene (firefly luciferase) in the liver” value was “reduced”.
